The results in this text go back to patent publication EP0604983B1, “Naphthalene derivatives” (Mitsubishi Chemical Corporation, priority 1992, dated 1994).

Structures are written as SMILES. Marks after values point to notes of the source that are not given here.

The subject of this assay is KK-Ay male mice. Put plainly: Blood sugar and blood triglyceride (TG) lowering test in KK-Ay mice, test compound mixed with powder food. Format: in vivo. The source says: The effect of the compound of the present invention on reducing blood sugar and blood lipid levels based on the ability of improving insulin resistance has been determined by the following test.
KK-Ay male mice of five to six week age were obtained from Nihon CREA. The mice have been bred with a powder feed (MF powders for breeding rats and mice, Oriental Yeast Co.) from 7 days prior to the test. The mice of nine to eighteen week age having body weights of 35 g or more were used for the test.
The blood sugar values were measured by withdrawing blood (20 µl) from animal's tail vein using a heparin-treated capillary, centrifuging the blood to obtain plasma, and measuring the glucose level in the plasma by the glucose-oxidase method. The triglyceride (TG) levels in plasma were measured by the glycerol enzyme method. Five mice in a group having 200 mg/dl or more of the blood sugar level were used for one test.
The test compounds were mixed with powder food such that the average dosage of the former is 10 - 100 mg/kg/day, and the mixture was administered to the mice for four days. Blood was withdrawn from the animal's tail vein before administration, and five days after administration, and blood sugar and TG levels were measured using the methods mentioned above. The amount of the food ingested was measured every day during the test period, and the average of the amounts for four days was calculated.
The ability of reducing blood sugar level was determined as described below. Namely, the means of the blood sugar values at the time before administration of the test compound in a control group (a group to which the test compound was not administered) and an administration group (a group to which the test compound was administered) (such values are referred to as Mcon and Mad, respectively) and the means of the blood sugar values of the control group and the administration group on 5th day after administration (such values are referred to as Con and Ad, respectively) were determined. The blood sugar lowering effect found in the administration group was expressed by the following formula. Blood sugar lowering effect(%) = 1-(Ad/Mad)/(Con/Mcon)x100 [formula]
The blood TG lowering ratio (%) was measured by the same procedure as that described above. All the values were statistically evaluated under significance level P=0.05.

The mark [1] stands for this setting: KK-Ay male mice, dose c.a. 30 mg/kg/day (footnote a) mixed with powder food for four days, plasma triglyceride 5th day, vs control group.
Where [2] appears, read: KK-Ay male mice, mixed with powder food for four days, Dose: c.a. 10 mg/kg/day, plasma triglyceride (glycerol enzyme method) on 5th day vs control group.
The mark [3] stands for this setting: KK-Ay male mice; mixed with powder food for four days; footnote a): Dose c.a. 100 mg/kg/day, plasma triglyceride (glycerol enzyme method) on 5th day vs control group.
Where [4] appears, read: KK-Ay male mice, dose c.a. 50 mg/kg/day mixed with powder food for four days, plasma triglyceride 5th day, vs control group.

Regarding `O=C1NC(=O)C(=Cc2ccc3cc(OCc4c(F)cccc4C(F)(F)F)ccc3c2)S1` [compound 50], the “TG lowering ratio (%)” value under setting [1] is reported as 27.7** %. On to `O=C1NC(=O)C(Cc2ccc3cc(OCc4ccc(F)cc4)ccc3c2)S1` (stereo not drawn) [Example 6], for which the “TG lowering ratio (%)” value under setting [2] was 37.7* %. The same measure, in the same setting: next, `CCc1ccc(CCOc2ccc(CC3SC(=O)NC3=O)cc2)nc1` (stereo not drawn) [Pioglitazone, pioglitazone, reference compound]: -4.0%; `O=C1NC(=O)C(Cc2ccc3cc(OCc4ccccc4F)ccc3c2)S1` (stereo not drawn) [Example 4, 5-[6-(2-fluorobenzyloxy)-2-naphthyl]-methyl-thiazolidine-2,4-dione]: 41.6* %. Consider `Cc1c(C)c2c(c(C)c1O)CCC(C)(COc1ccc(CC3SC(=O)NC3=O)cc1)O2` (stereo not drawn) [CS-045, reference compound], for which, under setting [3], the “TG lowering ratio (%)” value is -18.5%. With `O=C1NC(=O)C(Cc2ccc3cc(OCc4ccc(Cl)cc4)ccc3c2)S1` (stereo not drawn) [Example 8], the “TG lowering ratio (%)” value under setting [2] came out at 9.4%. As to `COC(=O)c1ccc(COc2ccc3cc(C=C4SC(=O)NC4=O)ccc3c2)cc1` [compound 39], the “TG lowering ratio (%)” value under setting [4] is 16.0%. Still for that read-out and setting: next, `O=C1NC(=O)C(=Cc2ccc3cc(OCc4ccccc4[N+](=O)[O-])ccc3c2)S1` [compound 33]: 16.0%. Take `O=C1NC(=O)C(=Cc2ccc3cc(OCc4cccc(F)c4)ccc3c2)S1` [compound 16]: the “TG lowering ratio (%)” value under setting [1] came out at 22.3%. With `O=C1NC(=O)C(=Cc2ccc3cc(OCc4ccccc4C(F)(F)F)ccc3c2)S1` [compound 46], the “TG lowering ratio (%)” value under setting [4] is recorded as 51.0** %. The same measure, in the same setting: next, `O=C1NC(=O)C(=Cc2ccc3cc(OCc4ccccc4Cl)ccc3c2)S1` [compound 18]: 53.8* %; `O=C1NC(=O)C(=Cc2ccc3cc(OCc4ccc([N+](=O)[O-])cc4)ccc3c2)S1` [compound 35]: 56.9%.

Consider `O=C1NC(=O)C(=Cc2ccc3cc(OCc4ccccc4)ccc3c2)S1` [Example 13, 5-(6-benzyloxy-2-naphthyl)-methylene-thiazolidine-2,4-dione], for which the “TG lowering ratio (%)” value under setting [1] was 21.0%. Consider `O=C1NC(=O)C(=Cc2ccc3cc(OCc4c(F)cccc4F)ccc3c2)S1` [compound 49], for which the “TG lowering ratio (%)” value under setting [1] is reported as 43.4*** %. In the case of `O=C1NC(=O)C(Cc2ccc3cc(OCc4ccccc4Cl)ccc3c2)S1` (stereo not drawn) [Example 7], under setting [2], the “TG lowering ratio (%)” value is listed as 28.3%. For `O=C1NC(=O)C(=Cc2ccc3cc(OCc4ccc(F)cc4)ccc3c2)S1` [compound 17], the “TG lowering ratio (%)” value under setting [1] turned out to be 24.4%. For `N#Cc1ccc(COc2ccc3cc(C=C4SC(=O)NC4=O)ccc3c2)cc1` [compound 32], under setting [4], the “TG lowering ratio (%)” value is given as 39.6* %. For `O=C1NC(=O)C(Cc2ccc3cc(OCc4ccccc4C(F)(F)F)ccc3c2)S1` (stereo not drawn) [Example 10], the “TG lowering ratio (%)” value under setting [2] was 37.2%. Regarding `O=C1NC(=O)C(Cc2ccc3cc(OCc4ccccn4)ccc3c2)S1` (stereo not drawn) [Example 1, 5-[6-(2-pyridylmethyloxy)-2-naphthyl]-methyl-thiazolidine-2,4-dione], the “TG lowering ratio (%)” value under setting [3] is given as 56.4%.

On to `O=C1NC(=O)C(=Cc2ccc3cc(OCc4ccccc4F)ccc3c2)S1` [Example 15, 5-[6-(2-fluorobenzyloxy)-2-naphthyl]-methylene-thiazolidine-2,4-dione], for which the “TG lowering ratio (%)” value under setting [1] is on record as 38.8%.

Take `O=C1NC(=O)C(Cc2ccc3cc(Oc4ccccc4)ccc3c2)S1` (stereo not drawn) [Example 3]: the “TG lowering ratio (%)” value under setting [3] was 31.3%. With `O=C1NC(=O)C(=Cc2ccc3cc(OCc4ccc(Cl)cc4)ccc3c2)S1` [compound 19], under setting [4], the “TG lowering ratio (%)” value turned out to be 21.7%.

On to `O=C1NC(=O)C(=Cc2ccc3cc(OCCc4ccccc4)ccc3c2)S1` [compound 14], for which the “TG lowering ratio (%)” value (KK-Ay male mice, dose c.a. 100 mg/kg/day (footnote b) mixed with powder food for four days, plasma triglyceride 5th day, vs control group) was determined as 19.9%. For the compound `O=C1NC(=O)C(=Cc2ccc3cc(OCc4ccc(Br)cc4)ccc3c2)S1` [compound 21], the “TG lowering ratio (%)” value under setting [4] is recorded as 14.7%. As for `O=C1NC(=O)C(=Cc2ccc3cc(OCc4ccc(C(F)(F)F)cc4)ccc3c2)S1` [compound 48], the “TG lowering ratio (%)” value under setting [4] was 25.6%. Still for that read-out and setting: next, `Cc1ccccc1COc1ccc2cc(C=C3SC(=O)NC3=O)ccc2c1` [compound 22]: 9.5%. Turning to `O=C1NC(=O)C(Cc2ccc3cc(OCc4ccccc4)ccc3c2)S1` (stereo not drawn) [Example 2], the “TG lowering ratio (%)” value under setting [2] is recorded as 9.1* %.
